Test: Stability of oligonucleotides in anhydrous TFA simulating Edman peptide cleavage conditions (HPLC)
Assay type: physicochemical
Conditions: 1 hr in anhydrous TFA (DMSO/TFA, 45 deg C), FIG. 40
Description: A deprotected 15mer DNA oligonucleotide (CCTGTTGTCAATGAG, Sys #003, LO1) (SEQ ID NO: 126) was obtained from Integrated DNA Technologies. Cleavage, deprotection, and desalting were performed by IDT using their standard process. It was resuspended in Mol Bio grade H2O at 160 μM and a 40 μL aliquot was dried (Eppindorf, Vacufuge+, 45° C. for ˜2 hrs) prior to subjecting to Edman cleavage chemistry. The deprotected oligonucleotide material used for the baseline measurement was resuspended as above, but not dried.
A protected DNA oligonucleotide (5Phos/ATGAGTG/iFormInd/AGGGAAATAGCTTCTGGT CGAACTAGTTGTTCGTCAA/idSp/TTTCTTT, Sys #001, SOCAB) (SEQ ID NO: 125) was liberated from CPG support using EndoIV (NEB, M0304) and desalted (Zymo) to provide five 60 μL aliquots at 70 μM of/5Phos/ATGAGTG/iFormInd/[…] (SEQ ID NO: 75), which were dried as described above. The protected oligonucleotide material used for the baseline measurement was desalted as above, but not dried.
In anhydrous environment 40 μL of DMSO was added to each dried aliquot. Following disolution 40 μL TFA was added to each. Solutions were incubated at 45 deg C. for 0 mins, 30 mins, 60 mins, 4 hrs, and overnight. Samples were neutralized by addition of 228 μL of 4.1M imidazole solution at the conclusion of their incubation period. HPLC chromatograms were collected for each sample.

## protected oligos: protected DNA oligonucleotide liberated from CPG support, /5Phos/ATGAGTG/iFormInd/AGGGAAATAGCTTCTGGTCGAACTAGTTGTTCGTCAA (SEQ ID NO: 75) (DNA ATGAGTGNAGGGAAATAGCTTCTGGTCGAACTAGTTGTTCGTCAA; 5' phosphate, internal formylindole, protecting groups; modified_base 1 OTHER; 5' phosphorylated nucleotide; modified_base 8 OTHER; Formylindole modified nucleotide)
  HPLC peak after exposure to anhydrous TFA: largely unchanged
